Test results reported in patent US20190292167A1, “HETEROAROMATIC COMPOUNDS USEFUL FOR THE TREATMENT OF PROLIFERATIVE DISEASES” (Syros Pharmaceuticals, Inc., priority 2013, published 2019).
Where two headings read alike, the source gives them in different places.

Key:
[1] = biological target: T1, CDK7 (Homo sapiens, UniProt P50613); assay: Adapta kinase assay (Life Technologies) against CDK7, co-factors cyclin H and MNAT1; assay type: biochemical; conditions: read-out: CDK7 Inhibition
T1 construct: purchased Life Technologies (Adapta kinase assay service)
Method: Compounds of the invention were assayed for activity against CDK7 at Life Technologies™ (Grand Island, N.Y.) using their commercially available Adapta® kinase assay services. […] Details of the assay, including the substrate used for CDK7 kinase, are available on the Life Technologies web site (http://www.lifetechnologies.com/us/en/homellife-science/drug-discovery/target-and-lead-identification-and-validation/kinasebiology/kinase-activity-assays.html).
The co-factors used for the assay were cyclin H and MNAT1.

[2] = test system: Jurkat; assay: Inhibition of cell proliferation, CellTiter-Glo, 72 hour; assay type: cell-based; conditions: read-out: Inhibition of Proliferation of Jurkat Cells
Method: The following cancer cell lines were tested with the media conditions indicated: […]

[3] = Homo sapiens, Jurkat, 72 h, Blood cancer cell line, 72 hour

T1 sequence (P50613 whole entry): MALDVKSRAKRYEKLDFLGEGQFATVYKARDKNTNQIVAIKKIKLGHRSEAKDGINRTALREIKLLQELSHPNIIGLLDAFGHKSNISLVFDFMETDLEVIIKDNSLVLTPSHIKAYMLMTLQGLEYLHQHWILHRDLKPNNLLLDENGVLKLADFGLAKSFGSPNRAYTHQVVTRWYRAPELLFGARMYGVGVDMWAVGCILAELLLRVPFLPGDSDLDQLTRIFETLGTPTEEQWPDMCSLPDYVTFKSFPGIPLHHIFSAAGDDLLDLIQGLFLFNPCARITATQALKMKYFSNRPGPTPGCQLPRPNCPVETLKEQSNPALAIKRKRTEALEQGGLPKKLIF
T1 sequence (P51946 whole entry partner): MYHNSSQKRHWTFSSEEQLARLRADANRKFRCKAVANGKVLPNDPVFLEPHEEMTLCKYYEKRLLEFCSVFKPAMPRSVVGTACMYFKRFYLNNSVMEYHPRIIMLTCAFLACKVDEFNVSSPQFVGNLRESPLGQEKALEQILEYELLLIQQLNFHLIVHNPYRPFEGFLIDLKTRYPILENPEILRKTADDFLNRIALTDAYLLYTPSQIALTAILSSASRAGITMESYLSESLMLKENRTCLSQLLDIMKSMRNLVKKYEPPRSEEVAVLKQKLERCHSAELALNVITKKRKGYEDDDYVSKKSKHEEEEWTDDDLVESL
T1 sequence (P51948 whole entry partner): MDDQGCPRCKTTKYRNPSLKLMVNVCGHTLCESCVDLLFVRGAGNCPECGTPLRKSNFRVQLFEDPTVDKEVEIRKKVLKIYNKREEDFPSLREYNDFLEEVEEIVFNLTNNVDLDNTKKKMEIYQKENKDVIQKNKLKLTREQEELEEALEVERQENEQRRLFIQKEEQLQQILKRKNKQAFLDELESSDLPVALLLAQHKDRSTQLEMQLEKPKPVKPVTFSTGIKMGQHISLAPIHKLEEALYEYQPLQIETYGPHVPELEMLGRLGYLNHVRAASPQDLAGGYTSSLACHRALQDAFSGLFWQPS

SMILES	IC50 [1]	IC50 [2, 3]	IC50 ([2]; Blood cancer cell line, 72 hour)	IC50 ([2]; Homo sapiens, Jurkat, 72 h)
Cc1noc(C)c1-c1nc(NC2CCN(C(=O)c3ccc(NC(=O)/C=C/CN(C)C)cc3)CC2)ncc1Cl [Compound 121, (E)-N-(4-(4-((5-chloro-4-(3,5-dimethylisoxazol-4-yl)pyrimidin-2-yl)amino)piperidine-1-carbonyl)phenyl)-4-(dimethylamino)but-2-enamide]	> 1000 nM	500 to 5000 nM		
C=CC(=O)Nc1ccc(CNC(=O)[C@@H]2CNC[C@H](Nc3ncc(Cl)c(-c4c[nH]c5ccccc45)n3)C2)cc1 (relative stereo) [Compound 152, (+/−cis)-N-(4-acrylamidobenzyl)-5-((5-chloro-4-(1H-indol-3-yl)pyrimidin-2-yl)amino)piperidine-3-carboxamide]	< 100 nM		500 to 5000 nM	
Nc1ccc(C(=O)N2CCC(Nc3ncc(Cl)c(-c4c[nH]c5ccccc45)n3)CC2)c(F)c1 [Compound 67, (4-amino-2-fluorophenyl)(4-(5-chloro-4-(1H-indol-3-yl)pyrimidin-2-ylamino)piperidin-1-yl)methanone]	100 to 1000 nM	500 to 5000 nM		
Cc1nc(C)c(-c2nc(NC3CCN(C(=O)c4ccc(NC(=O)/C=C/CN(C)C)cc4)CC3)ncc2Cl)s1 [Compound 119, (E)-N-(4-(4-((5-chloro-4-(2,4-dimethylthiazol-5-yl)pyrimidin-2-yl)amino)piperidine-1-carbonyl)phenyl)-4-(dimethylamino)but-2-enamide]	100 to 1000 nM	500 to 5000 nM		
Cc1cc(N)ccc1C(=O)N1CCC(Nc2ncc(Cl)c(-c3c[nH]c4ccccc34)n2)CC1 [Compound 63, (4-amino-2-methylphenyl)(4-(5-chloro-4-(1H-indol-3-yl)pyrimidin-2-ylamino)piperidin-1-yl)methanone]	100 to 1000 nM	> 5000 nM		
Nc1ccc(S(=O)(=O)N2CC[C@@H](Nc3ncc(Cl)c(-c4c[nH]c5ccccc45)n3)C2)cc1 [Compound 32, N—((R)-1-(4-aminophenylsulfonyl)pyrrolidin-3-yl)-5-chloro-4-(1H-indol-3-yl)pyrimidin-2-amine]	< 100 nM	> 5000 nM		
CN(C)C/C=C/C(=O)Nc1ccc(CN2CCC(Nc3ncc(Cl)c(-c4c[nH]c5ccccc45)n3)CC2)cc1 [Compound 106, (E)-N-(4-((4-((5-chloro-4-(1H-indol-3-yl)pyrimidin-2-yl)amino)piperidin-1-yl)methyl)phenyl)-4-(dimethylamino)but-2-enamide]	< 100 nM	< 500 nM		
Cc1cc(C(=O)N2CCC(Nc3ncc(Cl)c(-c4c[nH]c5ccccc45)n3)CC2)ccc1N [Compound 59, (4-amino-3-methylphenyl)(4-(5-chloro-4-(1H-indol-3-yl)pyrimidin-2-ylamino)piperidin-1-yl)methanone]	< 100 nM	< 500 nM		
CN(C)C/C=C/C(=O)Nc1ccc(C(=O)N2CCC(Nc3ncc(Cl)c(-c4c[nH]c5ccccc45)n3)CC2)cc1F [Compound 112, (E)-N-(4-(4-(5-chloro-4-(1H-indol-3-yl)pyrimidin-2-ylamino)piperidine-1-carbonyl)-2-fluorophenyl)-4-(dimethylamino)but-2-enamide]	< 100 nM	< 500 nM		
CC(=O)Nc1ccc(CN2CCC(Nc3ncc(Cl)c(-c4c[nH]c5ccccc45)n3)CC2)cc1 [Compound 47, N-(4-((4-(5-chloro-4-(1H-indol-3-yl)pyrimidin-2-ylamino)piperidin-1-yl)methyl)phenyl)acetamide]	100 to 1000 nM	500 to 5000 nM		
N#Cc1cnc(N[C@@H]2CCN(C(=O)c3ccc(NC(=O)/C=C/Cn4ccnc4)cc3)C2)nc1-c1c[nH]c2ccccc12 [Compound 109, (E)-N-(4-((R)-3-(5-cyano-4-(1H-indol-3-yl)pyrimidin-2-ylamino)pyrrolidine-1-carbonyl)phenyl)-4-(1H-imidazol-1-yl)but-2-enamide]	< 100 nM			< 500 nM
N#Cc1cnc(N[C@@H]2CCN(C(=O)c3ccc(NC(=O)/C=C/CN4CCOCC4)cc3)C2)nc1-c1c[nH]c2ccccc12 [Compound 107, (E)-N-(4-((R)-3-(5-cyano-4-(1H-indol-3-yl)pyrimidin-2-ylamino)pyrrolidine-1-carbonyl)phenyl)-4-morpholinobut-2-enamide]	< 100 nM	< 500 nM		
CN(C)C/C=C/C(=O)Nc1ccc(C(=O)N[C@H]2C[C@@H](Nc3ncc(Cl)c(-c4c[nH]c5ccccc45)n3)CN(C)C2)cc1 (racemic) [161/162, N-[(3S)-5-[[5-chloro-4-(1H-indol-3-yl)pyrimidin-2-yl]amino]-1-methyl-3-piperidyl]-4-[[(E)-4-(dimethylamino)but-2-enoyl]amino]benzamide]	< 100 nM			

More lines, main results first:

IC50 [1]	IC50 [2, 3]	SMILES	IC50 ([2]; Blood cancer cell line, 72 hour)	IC50 ([2]; Homo sapiens, Jurkat, 72 h)
100 to 1000 nM	500 to 5000 nM	O=C(/C=C/CNC(=O)C(F)(F)F)Nc1ccc(CN2CCC(Nc3ncc(Cl)c(-c4c[nH]c5ccccc45)n3)CC2)cc1 [Compound 156, (E)-N-(4-((4-((5-chloro-4-(1H-indol-3-yl)pyrimidin-2-yl)amino)piperidin-1-yl)methyl)phenyl)-4-(2,2,2-trifluoroacetamido)but-2-enamide]		
< 100 nM	< 500 nM	CN(C)C/C=C/C(=O)Nc1cccc(CN2CCC(Nc3ncc(Cl)c(-c4c[nH]c5ccccc45)n3)CC2)c1 [Compound 141, (E)-N-[3-[[4-[[5-chloro-4-(1H-indol-3-yl)pyrimidin-2-yl]amino]-1-piperidyl]methyl]phenyl]-4-(dimethylamino)but-2-enamide]		
< 100 nM	< 500 nM	CN(C)C/C=C/C(=O)N(C)c1cccc(CN2CCC(Nc3ncc(Cl)c(-c4c[nH]c5ccccc45)n3)CC2)c1 [Compound 145, (E)-N-[3-[[4-[[5-chloro-4-(1H-indol-3-yl)pyrimidin-2-yl]amino]-1-piperidyl]methyl]phenyl]-4-(dimethylamino)-N-methyl-but-2-enamide]		
< 100 nM	< 500 nM	Cc1[nH]c2ccccc2c1-c1nc(N[C@@H]2CC[C@H](NC(=O)c3ccc(NC(=O)/C=C/CN(C)C)cc3)C2)ncc1Cl (racemic) [Compound 126, N-((1R,3S)-3-((5-chloro-4-(2-methyl-1H-indol-3-yl)pyrimidin-2-yl)amino)cyclopentyl)-4-((E)-4-(dimethylamino)but-2-enamido)benzamide and N-((1S,3R)-3-((5-chloro-4-(2-methyl-1H-indol-3-yl)pyrimidin-2-yl)amino)cyclopentyl)-4-((E)-4-(dimethylamino)but-2-enamido)benzamide]		
< 100 nM	500 to 5000 nM	CN(C)CC=CC(=O)Nc1ccc(C(=O)NC2CNCC(Nc3ncc(Cl)c(-c4c[nH]c5ccccc45)n3)C2)cc1 (racemic) [Compound 149, N-((+/−cis)-5-((5-chloro-4-(1H-indol-3-yl)pyrimidin-2-yl)amino)piperidin-3-yl)-4-((E)-4-(dimethylamino)but-2-enamido)benzamide]		
> 1000 nM	> 5000 nM	CC(C)(CNC(=O)c1ccc(NC(=O)/C=C/CO)cc1)CNc1ncc(Cl)c(-c2c[nH]c3ccccc23)n1 [Compound 132, (E)-N-(3-(5-chloro-4-(1H-indol-3-yl)pyrimidin-2-ylamino)-2,2-dimethylpropyl)-4-(4-hydroxybut-2-enamido)benzamide]		
< 100 nM	< 500 nM	CNC/C=C/C(=O)Nc1ccc(CN2CCC(Nc3ncc(Cl)c(-c4c[nH]c5ccccc45)n3)CC2)cc1 [Compound 142, (E)-N-[4-[[4-[[5-chloro-4-(1H-indol-3-yl)pyrimidin-2-yl]amino]-1-piperidyl]methyl]phenyl]-4-(methylamino)but-2-enamide]		
< 100 nM	< 500 nM	C=CC(=O)Nc1ccc(NC(=O)[C@H]2CNCC(Nc3ncc(Cl)c(-c4c[nH]c5ccccc45)n3)C2)cc1 (mixture of isomers) [Compound 154, (+/−trans)-N-(4-acrylamidophenyl)-5-((5-chloro-4-(1H-indol-3-yl)pyrimidin-2-yl)amino)piperidine-3-carboxamide]		
	> 5000 nM	Nc1ccc(C(=O)NC2CC3(C2)CC(Nc2ncc(Cl)c(-c4c[nH]c5ccccc45)n2)C3)cc1 (stereo not shown) [Compound 318, 4-amino-N-(6-((5-chloro-4-(1H-indol-3-yl)pyrimidin-2-yl)amino)spiro[3.3]heptan-2-yl)benzamide]		
100 to 1000 nM		C=CC(=O)Nc1ccc(NC(=O)[C@@H]2C[C@@H](Nc3ncc(Cl)c(-c4c[nH]c5ccccc45)n3)CN(C)C2)cc1 (relative stereo) [Compound 159, (Trans)-N-(4-acrylamidophenyl)-5-((5-chloro-4-(1H-indol-3-yl)pyrimidin-2-yl)amino)-1-methylpiperidine-3-carboxamide]		
< 100 nM		C=CC(=O)Nc1ccc(NC(=O)[C@H]2C[C@@H](Nc3ncc(Cl)c(-c4c[nH]c5ccccc45)n3)CN(C)C2)cc1 (relative stereo) [Compound 160, (Cis)-N-(4-acrylamidophenyl)-5-((5-chloro-4-(1H-indol-3-yl)pyrimidin-2-yl)amino)-1-methylpiperidine-3-carboxamide]		
	< 500 nM	CN(C)C/C=C/C(=O)Nc1ccc(C(=O)N[C@H]2CC[C@@H](Nc3ncc(Cl)c(-c4c[nH]c5ccccc45)n3)C2)cc1 [Compound 130, N-((1S,3R)-3-((5-chloro-4-(1H-indol-3-yl)pyrimidin-2-yl)amino)cyclopentyl)-4-((E)-4-(dimethylamino)but-2-enamido)benzamide]		
100 to 1000 nM		CS(=O)(=O)NC/C=C/C(=O)Nc1ccc(CN2CCC(Nc3ncc(Cl)c(-c4c[nH]c5ccccc45)n3)CC2)cc1 [Compound 158, (E)-N-(4-((4-((5-chloro-4-(1H-indol-3-yl)pyrimidin-2-yl)amino)piperidin-1-yl)methyl)phenyl)-4-(methylsulfonamido)but-2-enamide]		
